Laboratory results reported in patent US20250041286A1, “CANCER TREATMENT USING KETOTIFEN IN COMBINATION WITH A CHECKPOINT INHIBITOR” (Materia Therapeutics Inc., priority 2021, published 2025).
“Also recorded” adds a separate entry of the source.

Columns and labels:
[1] = test system: MCA205 tumors; assay: Vascular and functional perfusion, contrast-enhanced ultrasound; format: in vivo, mouse; details: 10 mg/kg ketotifen, day 3 and day 7
Protocol: (§1) Vascular perfusion and functional perfusion were measured simultaneously during the course of ketotifen treatment, at day 3 and day 7, using contrast-enhanced ultrasound in mice bearing MCA205 and mice bearing K7M2wt tumors. Tumor perfusion was assessed after bolus injection of 8 μl SonoVue/Lumason contrast agent (Bracco Diagnostics, Geneva, Switzerland). SonoVue contains sulphur hexafluoride microbubbles encapsulated with a phosphoilipid shell and having a mean diameter of 2.5 μm. It is delivered as a retro-orbital injection since tail vein microbubble injections tend to have high variability. Prior to each ultrasound application, mice were anesthetized by i.p. injection of Avertin (200 mg/kg).

[2] = test system: K7M2wt tumors; assay: as above; format: in vivo, mouse; details: 10 mg/kg ketotifen, day 3 and day 7
Protocol: as §1

[3] = test system: K7M2wt tumors; assay: Tumor growth (volume, mass) under daily ketotifen, osteosarcoma model; format: in vivo, mouse; details: daily ketotifen i.p. for 8 days
Protocol: (§2) Two mouse models of distinct sarcoma subtypes, fibrosarcoma (MCA205 cells) and osteosarcoma (K7M2wt cells), were used in this study.
(§3) MCA205, a mouse fibrosarcoma cell line (SCC173, Millipore), was cultured in RPMI-1640 expansion medium containing 2 mM L-glutamine, 1 mM sodium pyruvate, 10% fetal bovine serum, 1× non-essential amino acids (TMS-001-C, Sigma), 1% antibiotics (A5955, Sigma), and 1×β-mercaptoethanol. K7M2wt, a mouse osteosarcoma cell line (CRL2836™, ATCC®), was cultured in DMEM expansion medium supplemented with 10% FBS and 1% antibiotics. All cells were maintained at 37° C./5% CO2.
(§4) A fibrosarcoma syngeneic tumor model was generated by subcutaneous implantation of 2.5×10^5 MCA205 cells in 50 μL of serum-free medium into the flank of 6-week old C57BL/6 female mice. A osteosarcoma syngeneic tumor model was generated by implanting K7M2wt tumor chunks into the fat pad of 6-week old BALB/c female mice. […]
(§5) Each treatment group of 4-7 mice received subtherapeutic doses of ketotifen (1, 5, 10 and 25 mg/kg) for a period of 8 days. […] Planar dimensions (x, y) of tumor were monitored every 2-3 days using a digital caliper and tumor volume was estimated from the volume of an ellipsoid and assuming that the third dimension, z, is equal to sqrt(x y).

[4] = test system: K7M2wt tumors; assay: Atomic force microscopy (AFM) elastic modulus of tumor samples ex vivo; format: in vivo, mouse; details: ketotifen-treated K7M2wt tumors, microscopic scale
Protocol: Following the confirmation of the presence of MCs in human sarcoma samples and the in vitro characterization of the MC-fibroblast interaction, it was assessed whether inhibition of MC degranulation would reduce fibrosis in murine sarcoma models. The impact of MC degranulation by treating MCA205 fibrosarcoma and K7M2wt osteosarcoma tumors with ketotifen was assessed. Ketotifen was administered in four different doses (1, 5, 10, and 25 mg/kg), once a day by i.p. injection for a period of 8 days (as shown in FIG. 4A). […] The effect of ketotifen on tumor stiffness in vivo was monitored using shear wave elastography (SWE). SWE measurements were performed before, after 3 days (for MCA205) or 4 days (for K7M2wt) of ketotifen treatment and upon study completion. […] The pertinent reduction in tumor stiffness was further validated ex vivo at the microscopic tissue scale using atomic force microscopy (AFM) of tumor samples. […] In FIG. 19B, the left peak of lower elastic modulus corresponds to compliant cancer cells, while the tail of higher elastic modulus (dashed rectangles) represents the contribution of the stiffer matrix components, mainly collagen. Data are presented as mean±SE. Statistical analyses were performed by comparing means between two independent groups using the ordinary one-way ANOVA test.

[5] = test system: MCA205 tumors; assay: Tumor-opening experiment (residual solid stress); format: in vivo, mouse; details: 5 mg/kg and 10 mg/kg ketotifen
Protocol: Tumor-opening experiments were performed as an indicator of the amount of residual stress contained within the tissue, using the values of opening after cutting.

[6] = test system: MCA205 tumors; assay: Hyaluronan evaluation, HABP1 immunofluorescence; format: in vivo, mouse; details: daily ketotifen 10 mg/kg
Protocol: (§6) Besides collagen, other structural components of tumor stroma can exert pressure and deform vessels. Such an example is the hyaluronan (e.g., hyaluronic acid), which binds to and retains excessive fluid generating gel-like regions within the tissue. Therefore, hyaluronic acid staining was performed in both sarcoma mouse models.
(§7) Tumors were removed from mice, washed twice in 1×PBS for 10 min, and incubated with 4% PFA overnight at 4° C. The fixative was aspirated, and samples were washed twice in 1×PBS for 10 min. Tissue samples were dehydrated in successive ethanol steps and xylene followed by paraffin embedding. Serial sections ([…]) of paraffin-embedded tissues were produced using the microtome (Accu-Cut SRM 200 Rotary Microtome, SAKURA), flattened out into water, and allowed to dry overnight at 37° C. Sections were then deparaffinized and rehydrated as routinely processed for histology. Tissue sections were subjected to antigen retrieval (microwave heat treatment with TriSodium Citrate, pH 6, for 20 min), washed with 1×TBS/0.025% Triton X-100 (TBS-T), and incubated in blocking solution (2% BSA, 0.2% Triton 100×) for 2 hours at room temperature. […] Hyaluronan was detected following incubation with streptavidin-FITC conjugate (Invitrogen, 1:1000) and nuclei were stained with DAPI stain at room temperature for 1 hour in the dark. […]

[7] = test system: K7M2wt tumors; assay: Hyaluronan evaluation, HABP1 immunofluorescence; format: in vivo, mouse; details: daily ketotifen 10 mg/kg
Protocol: as §6, §7

[8] = test system: MCA205 tumors; assay: Tumor growth (volume, mass) under daily ketotifen, fibrosarcoma model; format: in vivo, mouse; details: ketotifen 1, 5, 10 and 25 mg/kg i.p. once a day for 8 days
Protocol: as §2, §3, §4, §5

[9] = test system: CD117 protein; assay: Western blot against CD117 protein (mast cell number) in tumors; format: in vivo, mouse; details: subtherapeutic doses of ketotifen
[10] = Mouse body, thymus and spleen weight at conclusion of study; format: in vivo; details: highest dose (of 1, 5, 10, 25 mg/kg), i.p. once a day for 8 days
Protocol: Each treatment group of 4-7 mice received subtherapeutic doses of ketotifen (1, 5, 10 and 25 mg/kg) for a period of 8 days. Ketotifen fumarate salt was dissolved in sterilized normal saline (0.9% NaCl in ddH2O, w/v). Ketotifen 1 mg/kg, 5 mg/kg, 10 mg/kg, 25 mg/kg or equal volume of diluent (control group) was administered by intraperitoneal injection (i.p.) once a day for 8 days. Ketotifen treatment for MCA205 and K7M2wt tumor models started when the average tumor volume reached 60 mm^3 and 150 mm^3, respectively, and completed at 600 mm^3. At study endpoint, primary tumors were surgically excised and stored in 1×PBS at −80° C. until further processing. Planar dimensions (x, y) of tumor were monitored every 2-3 days using a digital caliper and tumor volume was estimated from the volume of an ellipsoid and assuming that the third dimension, z, is equal to sqrt(x y).
Following treatment, tumor growth (tumor volume and mass, see, FIGS. 2A and 2C for MCA205 tumors, and FIGS. 2B and 2D for K7M2wt tumors) was evaluated in the mice of each sarcoma group.

With `CN1CCC(=C2c3ccccc3CC(=O)c3sccc32)CC1` [ketotifen] the “vascular and functional perfusion” value [1] was “significant increase; also recorded: highly effective at increasing vessel perfusion”, the “vascular and functional perfusion” value [2] was “significant increase; also recorded: highly effective at increasing vessel perfusion” and the “antitumor effect (tumor volume and mass)” value [3] was “No subtherepautic dose of ketotifen exhibited an antitumor effect”. For the same compound, the “average value of elastic modulus by AFM” value [4] was “reduction”, the “tumor opening after cutting (solid stress)” value [5] was “smaller opening” and the “expression of hyaluronan protein (HABP1 staining)” value [6] was “reduced”. For the same compound, the “expression of hyaluronan protein (HABP1 staining)” value [7] was “reduced”, the “antitumor effect (tumor volume and mass)” value [8] was “No subtherepautic dose of ketotifen exhibited an antitumor effect” and the “mast cell (MC) number as determined by CD117 protein levels” value [9] was “remain unaffected”. For the same compound, the splenomegaly [10] was “caused splenomegaly”.
